In paper PMC9569450, “Dual Effect of Tryptamine on Prostate Cancer Cell Growth Regulation: A Pilot Study” (International Journal of Molecular Sciences, 2022):

What was measured:
PC-3 cells [1] = test: MTT cell proliferation assay, PC-3; type: cell-based, human; settings: Homo sapiens, PC-3, 48 h treatment in FBS-free medium, read-out: IC50 Value (Mean ± SD mM) PC-3
Method: (§1) PC-3, LNCaP, RWPE-1, HepG2, A549, and PANC-1 cells were purchased from the National Collection of Authenticated Cell Cultures (Shanghai, China). […] All the above cell cultures were supplied with 10% fetal bovine serum and 1% penicillin-streptomycin. RWPE-1 cells were cultured in keratinocyte serum-free medium (K-SFM, Gibco, New York, NY, USA) supplemented with 50 mg/L bovine pituitary extract and 5 μg/L epidermal growth factor (EGF). All cell lines were grown in a humidified atmosphere of 5% CO2 at 37 °C.
(§2) Cells were seeded in 100 μL complete medium in a 96-well plate, at a density of 10,000 cells/well for LNCaP and 5000 cells/well for other cells. Cells were pre-incubated for 24 h to allow for adherence before removal of complete medium and treatment with various concentrations of compounds in fetal bovine serum (FBS)-free medium for 48 h. After treatment, 20 μL/well MTT (5 mg/mL) was added and incubated for 3–4 h at 37 °C, and then 100 μL/well DMSO was added for MTT assay. The plate was shaken on an orbital shaker for 10 min. Absorbance was measured using a microplate reader at 492 nm for the MTT assay (performed in triplicates). Cell viability was normalized to control. Half inhibitory concentration (IC50) was calculated by SPSS Statistics 17.0. […] The experiments were independently repeated two to three times.

LNCaP cells = test: MTT cell proliferation assay, LNCaP; type: cell-based; settings: Homo sapiens, LNCaP, 48 h treatment in FBS-free medium, read-out: IC50 Value (Mean ± SD mM) LNCaP
Method: as §1, §2

HepG2 cells = test: Transwell migration assay, HepG2; type: cell-based; settings: 24 h
Method: Cell migration was evaluated using 8-μm transwell filters (Costar Corning, Schiphol-Rijk, The Netherlands). Cells at a density of 5 × 10^4 were seeded to the upper chamber, and the chamber was filled with FBS-free medium. Cells were incubated overnight to allow for adherence; then, the lower chamber was replaced with 10% FBS medium as a chemo-attractant. Following a 24 h incubation, non-migrating cells on the upper surface of the insert membrane were gently removed by cotton swabs and migrated cells on the lower surface of the insert membrane were fixed by 4% paraformaldehyde and stained with 0.1% crystal violet for 20 min. Migrated cells on each membrane were photographed and counted at 100× magnification field at six random fields.

PC-3 cells [2] = test: Annexin V-FITC/PI flow cytometry apoptosis assay; type: cell-based, human; settings: 24 h
Method: Cell apoptosis was assessed by Annexin V-FITC and propidium iodide (PI) staining using an Annexin V-FITC apoptosis detection kit (Thermo Fisher Scientific, Carlsbad, CA, USA) according to the manufacturer’s instructions. Briefly, cells were seeded at a density of 1.0 × 10^5 cells/well and pre-incubated for 24 h to allow for adherence before treatment with various concentrations of tryptamine in an FBS-free medium. After 24 h of tryptamine incubation, cells in each well were harvested and centrifuged at 200× g for 5 min. Cells were washed with PBS and centrifuged at 200× g for 5 min. Cells were resuspended in 100 μL binding buffer, followed by staining with 5 μL Annexin V-FITC and 5 μL PI, and incubation on ice in the dark for 15 min after addition of each staining reagent. Subsequently, a 300 μL binding buffer was added to the sample and apoptotic cells were detected by a flow cytometer (NovoCyte; ACEA Biosciences Inc., San Diego, CA, USA).

[3] = system: cleaved caspase-3 in PC-3 cells; test: Cleaved caspase-3 expression by immunofluorescent staining and Western blot; type: cell-based, human; settings: PC-3, 0.3 mM
Method: After treatment with various doses of tryptamine, PC-3 cells were lysed with RIPA lysis buffer (Beyotime, Shanghai, China) containing 1 mM PMSF, and the total protein concentration was determined by BCA Protein Assay Kit (Solarbio, Beijing, China). Samples were electrophoresed on a 10% sodium dodecylsulfate (SDS) polyacrylamide gel and electrotransferred onto polyvinylidene difluoride (PVDF) membrane (Beyotime, China). After blocking with 5% BSA for 1 h, the membrane was incubated with the primary antibodies rabbit anti-cleaved caspase-3 (1:1000, ab32042, Abcam) and anti-β-actin (1:1000, 4967S, Cell Signaling Technology, Boston, MA, USA) at 4 °C overnight, followed by incubation with horseradish peroxidase (HRP)-conjugated goat anti-rabbit secondary antibody (1:2000, 7074S, Cell Signaling Technology) for 1 h at 37 °C. After washing with TBST, the bands were visualized by the enhanced chemiluminescence kit (Thermo Fisher Scientific, Carlsbad, CA, USA) and Odyssey® imaging system (LI-COR, Lincoln, NE, USA) according to the manufacturers’ instructions.
PC-3 cells (5 × 10^4 cells/well) were seeded in a 24-well chamber with a coverslip and incubated overnight. […] Fluorescence images were acquired with a laser scanning confocal microscope (LSCM, Leica, TCS SP8 MP, Heidelberg, Germany).

PC-3 xenograft tumors = test: PC-3 xenograft mouse model; type: in vivo
Method: Five-week-old male BALB/c nude mice were purchased from Charles River Laboratories (Beijing, China) and raised in a temperature and humidity-controlled environment (25 ± 2 °C, 50% ± 10% humidity) with a standard 12 h light-dark cycle with food and water in cages under germ-free conditions (SCXK2021-0006). All procedures involving animals and their care were approved by the Institutional Animal Care and Use Committee of the Ocean University of China in accordance with institutional and National Institutes of Health guidelines (OUC-SMP-2022-01-01). PC-3 cells (4 × 10^6 dissolved in 150 μL PBS) were injected subcutaneously into the armpit area of each mouse. For the first treatment group, when tumors reached 50 mm^3, 80 mg/kg of tryptamine dissolved in normal saline with 0.1% formic acid was administered intraperitoneally once every other day for 32 days (n = 6). […] The control groups were administrated with the vehicle. The tumor volume (mm^3) was calculated based on the formula:(2) Tumor volume (mm^3)=length×width^2/2

[4] = mice; cited from earlier work

With `NCCc1c[nH]c2ccccc12` [Tryptamine] the IC50 (PC-3 cells [1]) was 0.24 ± 0.01 mM, the IC50 (LNCaP cells) was 0.037 ± 0.001 mM and the “migrated cells compared with the control” value (HepG2 cells; HepG2, 0.075 mM) was “no significant difference”. The “percentage of migrated cells” value (HepG2 cells; HepG2, 0.15 mM) was 77%, the “percentage of migrated cells” value (HepG2 cells; HepG2, 0.3 mM) was 55% and the “apoptotic cell populations (early and late apoptosis)” value (PC-3 cells [2]; PC-3, 0.2 mM) was 12.1%. For the same molecule, the “apoptotic cell populations (early and late apoptosis)” value (PC-3 cells [2]; PC-3, 0.3 mM) was 21.4%, the “expression of cleaved caspase-3” value [3] was “increased expression of cleaved caspase-3” and the “tumor volume and weight compared with the control group” value (PC-3 xenograft tumors; intraperitoneal, 80 mg/kg once every other day for 32 days) was “increased tumor volume and weight”. For the same molecule, the “adverse effects or toxicity in the liver” value (PC-3 xenograft tumors; intratumoral, 1 mg/100 mm^3) was “without obvious signs of adverse effects or toxicity in the liver”, the “tumor growth, tumor volume and weight” value (PC-3 xenograft tumors; intratumoral, 1 mg/100 mm^3 every day for 16 days) was “significant tumor growth delay” and the “median lethal dose (LD50)” value [4] was ~ 200 mg/kg.
